Several values for one entry are separate records, joined by “and”; a condition that tells them apart may be missing. Equal values may be shown once. Toxic doses and inconclusive results are not listed.

This passage reports T/C results from PubChem BioAssay AID216 (DTP/NCI, 2004).

The assay relates to BDF1 mice, P288 leukemia ip, survival T/C. The assay can be described thus: NCI In Vivo Anticancer Drug Screen. Data for tumor model P288 Lymphocytic Leukemia (intraperitoneal) in B6D2F1 (BDF1) mice. The conditions noted are these: endpoint: survival time, mean or median, higher = longer survival. Here is the method:
The antitumor activity of compounds was measured in mice bearing transplantable tumors. Survival or tumor size were measured and the results are expressed as the measurement made in the treated group (T) divided by the measurement made in the vehicle treated control group (C). The tumor model used in this assay is P288 Lymphocytic Leukemia (intraperitoneal) in B6D2F1 (BDF1) mice

Setting [1] is: dose: 2.0 mg/kg/injection, schedule: Q01DX010 (ip), vehicle: other.
[2] abbreviates: dose: 8.0 mg/kg/injection, schedule: Q01DX010 (ip), vehicle: other.
Setting [3] is: dose: 16.0 mg/kg/injection, schedule: Q01DX010 (ip), vehicle: other.
Setting [4] is: dose: 1.0 mg/kg/injection, schedule: Q01DX010 (ip), vehicle: saline.
Setting [5] is: dose: 2.0 mg/kg/injection, schedule: Q01DX010 (ip), vehicle: saline.
Where [6] appears, read: dose: 4.0 mg/kg/injection, schedule: Q01DX010 (ip), vehicle: saline.
[7] abbreviates: dose: 8.0 mg/kg/injection, schedule: Q01DX010 (ip), vehicle: saline.
Setting [8] is: dose: 16.0 mg/kg/injection, schedule: Q01DX010 (ip), vehicle: saline.
The mark [9] stands for this setting: dose: 1.0 mg/kg/injection, schedule: Q01DX010 (ip), vehicle: other.
Setting [10] is: dose: 4.0 mg/kg/injection, schedule: Q01DX010 (ip), vehicle: other.
[11] abbreviates: dose: 100.0 mg/kg/injection, schedule: Q01DX010 (ip), vehicle: saline.
Where [12] appears, read: dose: 200.0 mg/kg/injection, schedule: Q01DX010 (ip), vehicle: saline.

For `O=C(Nc1ccc(C2=NCCN2)cc1)c1ccc(C(=O)Nc2ccc(C3=NCCN3)cc2)c(Cl)c1`, the T/C by setting is: under setting [1], 108 % of control and 120 % of control; (dose: 7.5 mg/kg/injection, schedule: Q01DX Z (ip), vehicle: water) 107 % of control; under setting [2], 160 % of control and 183 % of control; under setting [3], 232 % of control and 262 % of control; (dose: 30.0 mg/kg/injection, schedule: Q01DX Z (ip), vehicle: water) 154 % of control; (dose: 32.0 mg/kg/injection, schedule: Q01DX010 (ip), vehicle: other) 120 % of control and 296 % of control.

As for `CN1CC[C@]23c4c5ccc(O)c4O[C@H]2C(=O)CC[C@H]3[C@H]1C5`, the T/C by setting is: (dose: 0.5 mg/kg/injection, schedule: Q01DX010 (ip), vehicle: saline) 106 % of control; under setting [4], 118 % of control; under setting [5], 106 % of control; under setting [6], 100 % of control.

`Nc1nc(SCc2ccccc2)c2[nH]cnc2n1`: the T/C runs as follows: (dose: 2.5 mg/kg/injection, schedule: Q01DX Z (ip), vehicle: carboxymethylcellulose (CMC)) 108 % of control; (dose: 4.95 mg/kg/injection, schedule: Q01DX Z (ip), vehicle: carboxymethylcellulose (CMC)) 113 % of control; under setting [7], 94 % of control; (dose: 9.9 mg/kg/injection, schedule: Q01DX Z (ip), vehicle: carboxymethylcellulose (CMC)) 91 % of control; under setting [8], 88 % of control; (dose: 18.75 mg/kg/injection, schedule: Q01DX Z (ip), vehicle: carboxymethylcellulose (CMC)) 88 % of control. Moreover, the T/C was 113 % of control (dose: 18.8 mg/kg/injection, schedule: Q01DX Z (ip), vehicle: carboxymethylcellulose (CMC)); 100 % of control (dose: 32.0 mg/kg/injection, schedule: Q01DX010 (ip), vehicle: saline); 122 % of control (dose: 64.0 mg/kg/injection, schedule: Q01DX010 (ip), vehicle: saline); 110 % of control (dose: 128.0 mg/kg/injection, schedule: Q01DX010 (ip), vehicle: saline).

With `O=C(Nc1ccc(C2=NCCCN2)cc1)c1ccc(C(=O)Nc2ccc(C3=NCCCN3)cc2)cc1`, the T/C is, setting by setting: (dose: 0.2 mg/kg/injection, schedule: Q01DX Z (ip), vehicle: water) 100 % of control; (dose: 0.4 mg/kg/injection, schedule: Q01DX Z (ip), vehicle: water) 109 % of control; (dose: 0.5 mg/kg/injection, schedule: Q01DX010 (ip), vehicle: other) 116 % of control and 120 % of control; under setting [9], 150 % of control; (dose: 1.6 mg/kg/injection, schedule: Q01DX Z (ip), vehicle: water) 177 % of control; under setting [1], 192 % of control and 216 % of control. The T/C (dose: 3.1 mg/kg/injection, schedule: Q01DX Z (ip), vehicle: water) was 273 % of control; the T/C under setting [10] is 164 % of control and 212 % of control; the T/C under setting [2] was 91 % of control.

In the case of `O=C(Nc1ccc(C2=NCCCN2)cc1)c1ccc(NC(=O)c2ccc(C3=NCCCN3)cc2)cc1`, the T/C is 113 % of control (dose: 0.24 mg/kg/injection, schedule: Q01DX Z (ip), vehicle: carboxymethylcellulose (CMC)); 94 % of control (dose: 0.49 mg/kg/injection, schedule: Q01DX Z (ip), vehicle: carboxymethylcellulose (CMC)); 121 % of control (dose: 0.98 mg/kg/injection, schedule: Q01DX Z (ip), vehicle: carboxymethylcellulose (CMC)); 120 % of control under setting [9]; 119 % of control (dose: 1.95 mg/kg/injection, schedule: Q01DX Z (ip), vehicle: carboxymethylcellulose (CMC)); 124 % of control under setting [1]. Besides, the T/C (dose: 3.9 mg/kg/injection, schedule: Q01DX Z (ip), vehicle: carboxymethylcellulose (CMC)) is 183 % of control; the T/C under setting [10] is 184 % of control and 237 % of control; the T/C (dose: 7.8 mg/kg/injection, schedule: Q01DX Z (ip), vehicle: carboxymethylcellulose (CMC)) was 245 % of control; the T/C under setting [2] was 237 % of control and 284 % of control; the T/C (dose: 15.6 mg/kg/injection, schedule: Q01DX Z (ip), vehicle: carboxymethylcellulose (CMC)) was 156 % of control; the T/C under setting [3] is 92 % of control. The T/C (dose: 31.25 mg/kg/injection, schedule: Q01DX Z (ip), vehicle: carboxymethylcellulose (CMC)) is 103 % of control.

As to `CSc1ncnc2nc[nH]c12`, the T/C was 105 % of control (dose: 6.25 mg/kg/injection, schedule: Q01DX Z (ip), vehicle: carboxymethylcellulose (CMC)); 101 % of control (dose: 12.5 mg/kg/injection, schedule: Q01DX Z (ip), vehicle: carboxymethylcellulose (CMC)); 90 % of control (dose: 25.0 mg/kg/injection, schedule: Q01DX010 (ip), vehicle: saline); 101 % of control (dose: 25.0 mg/kg/injection, schedule: Q01DX Z (ip), vehicle: carboxymethylcellulose (CMC)); 86 % of control and 90 % of control (dose: 50.0 mg/kg/injection, schedule: Q01DX010 (ip), vehicle: saline); 113 % of control and 88 % of control (dose: 50.0 mg/kg/injection, schedule: Q01DX Z (ip), vehicle: carboxymethylcellulose (CMC)). Further, the T/C is 100 % of control under setting [11]; 90 % of control and 100 % of control under setting [12].

On to `CN(C)CC(=O)c1ccc(O)c(O)c1`, for which the T/C by setting is: (dose: 8.0 mg/kg/injection, schedule: Q01DX Z (ip), vehicle: saline) 94 % of control; (dose: 16.0 mg/kg/injection, schedule: Q01DX Z (ip), vehicle: saline) 105 % of control; (dose: 500.0 mg/kg/injection, schedule: Q01DX Z (ip), vehicle: saline) 152 % of control; (dose: 675.0 mg/kg/injection, schedule: Q01DX010 (ip), vehicle: saline) 150 % of control.

As to `CS(=O)(=O)OCC(O)C(O)COS(C)(=O)=O` (stereo unspecified), the T/C is 111 % of control (dose: 94.0 mg/kg/injection, schedule: Q01DX Z (ip), vehicle: saline); 105 % of control under setting [11]; 105 % of control (dose: 187.5 mg/kg/injection, schedule: Q01DX Z (ip), vehicle: saline); 94 % of control under setting [12]; 117 % of control (dose: 375.0 mg/kg/injection, schedule: Q01DX Z (ip), vehicle: saline); 111 % of control (dose: 750.0 mg/kg/injection, schedule: Q01DX Z (ip), vehicle: saline). The T/C (dose: 800.0 mg/kg/injection, schedule: Q01DX010 (ip), vehicle: saline) is 105 % of control.

For `N=[N+]=CC(=O)OCC(N)C(=O)O` (stereo unspecified), the T/C (dose: 3.13 mg/kg/injection, schedule: Q01DX010 (ip), vehicle: saline) was 94 % of control; the T/C (dose: 6.25 mg/kg/injection, schedule: Q01DX010 (ip), vehicle: saline) was 105 % of control; the T/C (dose: 12.5 mg/kg/injection, schedule: Q01DX010 (ip), vehicle: saline) was 100 % of control.

As for `CCN(CC)C(=S)S`, the T/C by setting is: (dose: 125.0 mg/kg/injection, schedule: Q01DX Z (ip), vehicle: other) 97 % of control; (dose: 250.0 mg/kg/injection, schedule: Q01DX Z (ip), vehicle: other) 112 % of control; (dose: 500.0 mg/kg/injection, schedule: Q01DX Z (ip), vehicle: other) 104 % of control; (dose: 1000.0 mg/kg/injection, schedule: Q01DX Z (ip), vehicle: other) 104 % of control.

For `Nc1nc(=S)c2ncn(C3OC(CO)C(O)C3O)c2[nH]1` (stereo unspecified), the T/C under setting [4] is 105 % of control; the T/C under setting [5] is 115 % of control; the T/C under setting [6] was 118 % of control and 120 % of control; the T/C under setting [7] was 112 % of control and 95 % of control; the T/C under setting [8] was 106 % of control; the T/C (dose: 5.0 micrograms/kg/injection, schedule: Q01DX Z (ip), vehicle: carboxymethylcellulose (CMC)) is 105 % of control. In addition, the T/C is 96 % of control (dose: 10.0 micrograms/kg/injection, schedule: Q01DX Z (ip), vehicle: carboxymethylcellulose (CMC)) and 94 % of control (dose: 20.0 micrograms/kg/injection, schedule: Q01DX Z (ip), vehicle: carboxymethylcellulose (CMC)).
